Earlier results in US7300768B2 (Saladax Biomedical Inc., priority 2004, dated 2007).

Details: imatinib and its salts; Gleevec package insert, Pindolia et al.

Cc1ccc(NC(=O)c2ccc(CN3CCN(C)CC3)cc2)cc1Nc1nccc(-c2cccnc2)n1 [imatinib]
degree of intra- and inter-individual pharmacokinetic variability: four fold
